Results: ChEMBL document CHEMBL1158439, “Non-isotopic dual parameter competition assay suitable for high-throughput screening of histone deacetylases” (Bioorg Med Chem Lett, 2009)

Assays:
[1] = biological target: T1, Histone deacetylase-like amidohydrolase (Alcaligenes sp. (strain DSM 11172) (Bordetella sp. (strain FB188)), UniProt Q70I53); assay: Binding affinity to Bordetella / Alcaligenes strain FB188 HDAC by FRET assay; set-up: species or system Alcaligenaceae bacterium FB188
T1 sequence (Q70I53 whole entry): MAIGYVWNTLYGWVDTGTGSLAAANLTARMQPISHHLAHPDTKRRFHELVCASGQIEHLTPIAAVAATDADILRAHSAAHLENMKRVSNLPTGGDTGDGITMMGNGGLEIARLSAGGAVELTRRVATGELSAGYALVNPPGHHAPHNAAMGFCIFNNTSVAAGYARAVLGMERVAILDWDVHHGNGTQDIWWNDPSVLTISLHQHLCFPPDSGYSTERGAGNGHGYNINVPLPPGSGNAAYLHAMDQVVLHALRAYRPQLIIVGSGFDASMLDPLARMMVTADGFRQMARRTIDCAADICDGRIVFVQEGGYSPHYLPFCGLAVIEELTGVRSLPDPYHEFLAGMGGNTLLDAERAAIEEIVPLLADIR

[2] = biological target: T1, Histone deacetylase-like amidohydrolase (Alcaligenes sp. (strain DSM 11172) (Bordetella sp. (strain FB188)), UniProt Q70I53); assay: Inhibition of Bordetella / Alcaligenes strain FB188 HDAH by fluorogenic enzyme assay; set-up: species or system Alcaligenaceae bacterium FB188
[3] = Displacement of Atto700-HA from Bordetella / Alcaligenes strain FB188 […] by fluorescence anisotropy; set-up: species or system Alcaligenaceae bacterium FB188
[4] = biological target: T1, Histone deacetylase-like amidohydrolase (Alcaligenes sp. (strain DSM 11172) (Bordetella sp. (strain FB188)), UniProt Q70I53); assay: Displacement of Atto700-HA from Bordetella / Alcaligenes strain FB188 HDAH by fluorescence anisotropy; set-up: species or system Alcaligenaceae bacterium FB188
[5] = Inhibition of HDAC from RT extract
[6] = Inhibition of Bordetella / Alcaligenes strain FB188 HDAC6 by fluorescence polarization assay; set-up: species or system Alcaligenaceae bacterium FB188
[7] = Inhibition of Bordetella / Alcaligenes strain FB188 HDAC6 by fluorogenic enzyme assay
[8] = biological target: T1, Histone deacetylase-like amidohydrolase (Alcaligenes sp. (strain DSM 11172) (Bordetella sp. (strain FB188)), UniProt Q70I53); assay: Inhibition of Bordetella / Alcaligenes strain FB188 HDAH by fluorimetric assay; set-up: species or system Alcaligenaceae bacterium FB188

Structure (SMILES)	IC50 [2] [µM]	IC50 [3] [µM]	Ki [4] [µM]	IC50 [5] [µM]	IC50 [7] [µM]	IC50 [8] [µM]	Ki [1] [µM]	IC50 [6] [µM]
CCCCCC1OC1CC#CCCCCCCCC(=O)O (configuration not stated)	9.2	> 20	20				4.3	
CCCCCCCCCCCC[C@@H](C)O[C@@H]1O[C@H](CO)[C@@H](O)[C@H](O)[C@H]1O[C@@H]1O[C@H](COC(C)=O)[C@@H](O)[C@H](O)[C@H]1O	6.2	> 50	10	> 50			2	
CCC(=O)CCCCC[C@@H]1NC(=O)[C@H]2CCCCN2C(=O)[C@H]([C@@H](C)CC)NC(=O)[C@H](Cc2cn(OC)c3ccccc23)NC1=O [APICIDIN]			9.2					0.67
Nc1ccccc1NC(=O)c1ccc(CNC(=O)OCc2cccnc2)cc1 [ENTINOSTAT]	118		> 100	8.8	> 10			

The next compounds have a lower Ki [4] than those just listed; values first:

IC50 [2] [µM]	IC50 [3] [µM]	Ki [4] [µM]	IC50 [5] [µM]	IC50 [7] [µM]	IC50 [8] [µM]	Structure (SMILES)	Ki [1] [µM]	IC50 [6] [µM]
0.6	0.07	1.4	0.6			O=C(CCCCCc1nc2cc3ccccc3cc2[nH]1)C(F)(F)F		
0.6	> 50	1.1	> 50			CCC1=C(OC)C(=O)C(CCCCCCCCCCC(C)=O)=C(C)C1=O		
		0.7	0.001		1.2	CC(/C=C/C(=O)NO)=C\[C@@H](C)C(=O)c1ccc(N(C)C)cc1 [TRICHOSTATIN]		0.017
